The results in this text go back to publication PMC10266688 (PLOS ONE, 2023).

In one series the test system is HeLa cells. The series can be described thus: MTT cytotoxicity assay, HeLa cells, 72 h. In kind it is cell-based. The note with it: Homo sapiens, 72 h treatment. (Formazan colour is commonly taken as a measure of viable cells.)
Series [1] in a line: Plasma stability, human EDTA plasma. Format: in vitro ADME. The note with it: for % Drug Remaining, Plasma (Human EDTA): 10 μM, 37°C.
The nature of series [2]: Tissue distribution in CD1 mice, LC-MS/MS. In kind it is in vivo, mouse. The note with it: 40 mg/kg IV. As for the experimental part: Tissue homogenates were prepared at a concentration of 200 mg/mL in PBS. After vortex-mixing and centrifuging for 5 min at 2700 rpm. […] Mobile phase A was water containing 0.1% formic acid, and mobile phase B was acetonitrile containing 0.1% formic acid. The gradient started with mobile phase B at 20% and was held at 20% for 0.5 min with a flow rate of 0.3 mL/min, then increased to 100% over 0.5 minutes and held for 2.0 min, and finally returned back to 20% mobile phase B and allowed to equilibrate until 4.1min. […] The lower limit of quantitation (LLOQ) in plasma was 10 ng/mL.
A) ES2 cells stably transduced with the 4UbFL reporter plasmid were treated with compounds at indicated doses for 4 h. The cells were then washed, lysed and their luminescence measured by a luminometer after addition of luciferin. B) Female CD1 mice electroporated with 4UbFL plasmid in their leg muscle. After 48 h, the mice were injected with luciferin, imaged by IVIS for their basal bioluminescence and randomized into two groups of five. […] D) Up284 tissue distribution. […] Up284 levels in tissue samples were analyzed by HPLC. E) Up284 pharmacokinetics. […] Blood was collected at indicated time points thereafter and analyzed for Up284 levels by HPLC.
Up284 levels were analyzed in all major tissues (brain, colon, heart, kidney, liver, lung and spleen) by liquid chromatography–mass spectrometry (LC–MS/MS).

The test system of series [3] is ES2-luc human ovarian tumor. Kind of series: ES2-luc xenograft model, nude mice. The note with it: 10 mg/kg IP every 3 days. In kind it is in vivo, mouse. As for the experimental part:
Female Nude mice were inoculated IP with 1x10^6 ES2-luc in 100 μL PBS. At day 3, mice were imaged for basal level luminescence activity with a Xenogen IVIS 200 after IP injection with luciferin (0.3 mg in 100 μL water). Mice were randomized into groups and treated IP with compounds or vehicle (25% (w/v) β-Hydroxypropylcyclodextrin in water), and imaged again on days indicated.
Briefly mice were injected IP with ES2-luc cells, as ovarian cancer primarily spreads through the peritoneum, and it is the origin of primary peritoneal cancer. After four days, these mice were injected IP with luciferin and bioluminescence imaged by IVIS imager as a surrogate of tumor burden. […] Bioluminescent imaging was performed by IVIS 12 and 21 days later.
A-C) Female nude mice were inoculated IP with ES2-luc cells, a human ovarian cancer line expressing luciferase. […] The IP tumor tissue and electroporated normal muscle tissue, being spatially distinct, were identified with separate regions of interest (ROI) after simultaneous imaging with IVIS.

The conditions of series [4]: mouse, in vivo, iv, 20 mg/kg.
Protocol: The mice were divided into three groups consisting of three female CD1 mice each. […] Terminal blood sampling for hematological and serum biochemical analysis was performed on Day 7 of the study, 24 h after the last dosing. […] Terminal bleeding and euthanasia were performed on Day 7, 24 h after the third dosing. Blood collection was carried out after 6 h fasting. Animals were injected IP with 2,2,2-tribromoethanol (200 mg/kg) and the blood was collected from orbital sinuses into dry microtainers without anticoagulant. For the serum collection, the tubes with collected blood were held at RT for 15–60 min after blood drawing to form a clot, and then were centrifuged at 9000 rpm for 20 min at 4°C. The collected serum was frozen within 60–80 min after blood drawing and was stored at -20°C for further clinical chemistry analysis. For the hematological study, 25 μL of fresh blood was quickly mixed with an equal volume of 0.36% solution of K2EDTA in saline. Assessment of the hematological parameters was performed using the BIO TE hematology analyzer MCL-3124 and consumable reagents (Cormay) within 2 h of the blood draw. For clinical chemistry analyses, ASAT, ALAT, ALP, LDH, GGT, CK, Creatinine, Urea and TP were determined in the serum using commercial kits according to the manufacturer’s instructions.
The test system of another series is CHOP10 mRNA. Kind of series: Q-PCR of CHOP10 mRNA. The note with it: 1 μM, 4 h.
A further series deals with ES2 cells. The series can be described thus: Reactive oxygen species, Amplex Red/HRP. The note with it: 12 h.

Usually IC50 stands for the concentration at which inhibition is half-maximal.

`N#Cc1ccc(/C=C2/C(=O)/C(=C/c3ccc(C#N)cc3)C23CCNCC3)cc1` [Up284] had an IC50 in the series on HeLa cells of 40 nM. Besides, the “% Drug Remaining, Plasma (Human EDTA)” value in series [1] (0 min) was found to be 100%; in series [1] (30 min), 100%; in series [1] (60 min), 90%. In series [1] (after incubating for 1 hour), the “degradation in human plasma” value is recorded as below 10%. In addition, the “plasma level at 24 h” value in series [2] is “low”. For the same compound, the “tissue levels (brain, colon, heart, kidney, liver, lung and spleen)” value in series [2] (24 h) is “accumulated in all the tissues, particularly the lungs”. Also, in series [3] (days 12 and 21, p = 0.0002), the “ES2-luc xenograft tumor burden (bioluminescence) vs vehicle” value is “significantly reduced”. The “overall survival vs vehicle” value in series [3] (p = 0.005) was “increased overall survival”. The “other blood parameters vs vehicle” value in series [4] is given as “did not significantly change”. Besides, in the series with CHOP10 mRNA, the “CHOP10 mRNA levels” value is “rapid upregulation”. The reactive oxygen species result in the series on ES2 cells is on record as “elevated levels of reactive oxygen species”.
